Legend:
Mus musculus [1] = test: Compound was evaluated in vivo for its effective dose at which half of the mice were effected using hotplate assay (HPA) by administering the compound subcutaneously.; type: functional; conditions: sc
Oryctolagus cuniculus [2] = test: Compound was evaluated in vivo for the respiratory activity in four conscious rabbits. The percent change in respiration rate in comparison to the 10-minute period prior to the injection, dose 0.005 g/uM; type: functional
Mus musculus [3] = test: Compound was evaluated in vivo for its effective dose at which half of the mice were effected using Nilsen assay (NA) by administering the compound perorally (po).; type: functional
Mus musculus [4] = test: Compound was evaluated in vivo for its effective dose at which half of the mice were effected using Nilsen assay (NA) by administering the compound Subcutaneously; type: functional; conditions: sc
Opioid receptor [5] = molecular target: T1, Opioid receptor (Rattus norvegicus, UniProt P33533+P34975+P33535); type: cell membranes, Brain, Membrane
Oryctolagus cuniculus [6] = test: Compound was evaluated in vivo for the respiratory activity in four conscious rabbits. The percent change of the respiratory volume in comparison to the 10-minute prior to the injection, dose 0.005 g/uM; type: functional
Mus musculus [7] = test: Compound was evaluated in vivo for its effective dose at which half of the mice were effected using hotplate assay (HPA) by administering the compound perorally (po).; type: functional
Mus musculus [8] = test: In vivo inhibition of subcutaneously administered naloxone-elicited opioid type withdrawal jumping (IWJ) after 72 hours in physically dependent male mice (strain Fullinsdorf-Albino SPF). Dose 0.005 g/uM; type: functional; conditions: sc
Opioid receptor [9] = molecular target: T1, Opioid receptor; type: cell membranes, Brain, Membrane; remark: listed apart in the source
Oryctolagus cuniculus [10] = test: Compound was evaluated in vivo for the respiratory activity in four conscious rabbits. The percent change in respiration rate in comparison to the 10-minute period prior to the injection, dose 0.41 g/uM; type: functional
Oryctolagus cuniculus [11] = test: Compound was evaluated in vivo for the respiratory activity in four conscious rabbits. The percent change of the respiratory volume in comparison to the 10-minute prior to the injection, dose 0.41 g/uM; type: functional
Mus musculus [12] = test: In vivo inhibition of subcutaneously administered naloxone-elicited opioid type withdrawal jumping (IWJ) after 72 hours in physically dependent male mice (strain Fullinsdorf-Albino SPF). Dose 0.41 g/uM; type: functional; conditions: sc
Mus musculus [13] = test: Compound was evaluated in vivo for its effective dose at which half of the mice were effected using hotplate assay (HPA) by administering the compound perorally (po); type: functional
Mus musculus [14] = test: Compound was evaluated in vivo for its effective dose at which half of the mice were effected using hotplate assay (HPA) by administering the compound subcutaneously; type: functional; conditions: sc
Oryctolagus cuniculus [15] = test: Compound was evaluated in vivo for the respiratory activity in four conscious rabbits. The percent change of the respiratory volume in comparison to the 10-minute prior to the injection, dose 0.08 kg/uM; type: functional
Oryctolagus cuniculus [16] = test: Compound was evaluated in vivo for the respiratory activity in four conscious rabbits. The percent change in respiration rate in comparison to the 10-minute period prior to the injection, dose 0.08 kg/uM; type: functional
Mus musculus [17] = test: In vivo inhibition of subcutaneously administered naloxone-elicited opioid type withdrawal jumping (IWJ) after 72 hours in physically dependent male mice (strain Fullinsdorf-Albino SPF), dose 0.08 kg/uM; type: functional; conditions: sc
Mus musculus [18] = test: Compound was evaluated in vivo for its effective dose at which half of the mice were effected using Nilsen assay (NA) by administering the compound perorally (po); type: functional
Oryctolagus cuniculus [19] = test: Compound was evaluated in vivo for the respiratory activity in four conscious rabbits. The percent change in respiration rate in comparison to the 10-minute period prior to the injection, dose 0.17 kg/uM; type: functional
Oryctolagus cuniculus [20] = test: Compound was evaluated in vivo for the respiratory activity in four conscious rabbits. The percent change of the respiratory volume in comparison to the 10-minute prior to the injection, dose 0.17 kg/uM; type: functional
Mus musculus [21] = test: In vivo inhibition of subcutaneously administered naloxone-elicited opioid type withdrawal jumping (IWJ) after 72 hours in physically dependent male mice (strain Fullinsdorf-Albino SPF), dose 0.17 kg/uM; type: functional; conditions: sc
Oryctolagus cuniculus [22] = test: Compound was evaluated in vivo for the respiratory activity in four conscious rabbits. The percent change in respiration rate in comparison to the 10-minute period prior to the injection, dose 0.017 g/uM; type: functional
Oryctolagus cuniculus [23] = test: Compound was evaluated in vivo for the respiratory activity in four conscious rabbits. The percent change of the respiratory volume in comparison to the 10-minute prior to the injection, dose 0.017 g/uM; type: functional
Mus musculus [24] = test: In vivo inhibition of subcutaneously administered naloxone-elicited opioid type withdrawal jumping (IWJ) after 72 hours in physically dependent male mice (strain Fullinsdorf-Albino SPF), dose 0.017 g/uM; type: functional; conditions: sc
Oryctolagus cuniculus [25] = test: Compound was evaluated in vivo for the respiratory activity in four conscious rabbits. The percent change of the respiratory volume in comparison to the 10-minute prior to the injection, dose 0.67 kg/uM; type: functional
Mus musculus [26] = test: In vivo inhibition of subcutaneously administered naloxone-elicited opioid type withdrawal jumping (IWJ) after 72 hours in physically dependent male mice (strain Fullinsdorf-Albino SPF).; type: functional; conditions: sc
Oryctolagus cuniculus [27] = test: Compound was evaluated in vivo for the respiratory activity in four conscious rabbits. The percent change in respiration rate in comparison to the 10-minute period prior to the injection, dose 0.67 kg/uM; type: functional
Oryctolagus cuniculus [28] = test: Compound was evaluated in vivo for the respiratory activity in four conscious rabbits. The percent change in respiration rate in comparison to the 10-minute period prior to the injection, dose 0.18 kg/uM; type: functional
Oryctolagus cuniculus [29] = test: Compound was evaluated in vivo for the respiratory activity in four conscious rabbits. The percent change of the respiratory volume in comparison to the 10-minute prior to the injection, dose 0.18 kg/uM; type: functional
Mus musculus [30] = test: In vivo inhibition of subcutaneously administered naloxone-elicited opioid type withdrawal jumping (IWJ) after 72 hours in physically dependent male mice (strain Fullinsdorf-Albino SPF), dose 0.18 kg/uM; type: functional; conditions: sc
Oryctolagus cuniculus [31] = test: Compound was evaluated in vivo for the respiratory activity in four conscious rabbits. The percent change in respiration rate in comparison to the 10-minute period prior to the injection, dose 0.03 kg/uM; type: functional
Oryctolagus cuniculus [32] = test: Compound was evaluated in vivo for the respiratory activity in four conscious rabbits. The percent change of the respiratory volume in comparison to the 10-minute prior to the injection, dose 0.03 kg/uM; type: functional
Mus musculus [33] = species: Mus musculus; test: animal or person; conditions: sc, 72 h

Structure (SMILES) | ED50 (Mus musculus [1]) [µmol/kg] | ED50 (Mus musculus [4]) [µmol/kg] | IC50 (Opioid receptor [5]) [nM] | IC50 (Opioid receptor [9]) [nM] | ED50 (Mus musculus [13]) [µmol/kg] | ED50 (Mus musculus [14]) [µmol/kg] | ED50 (Mus musculus [18]) [µmol/kg] | further results
Br.CO[C@@]12CCC(=O)[C@@H]3Oc4c(O)ccc5c4[C@@]31CCN(C)C2C5 | 0.008 | 0.02 | 0.08 | 0.003 |  |  |  | Change (Oryctolagus cuniculus [2]): -33%; ED50 (Mus musculus [3]): 0.5 µmol/kg; Change (Oryctolagus cuniculus [6]): -26%; ED50 (Mus musculus [7]): 0.5 µmol/kg; ED50 (Mus musculus [8]): 0.08 µmol/kg
Br.CO[C@@]12CCC(=O)[C@@H]3Oc4c(OCc5ccccc5)ccc5c4[C@@]31CCN(C)C2C5 | 2.7 |  | 9 | 0.8 |  |  |  | Change (Oryctolagus cuniculus [10]): -38%; Change (Oryctolagus cuniculus [11]): -32%; ED50 (Mus musculus [12]): 5.3 µmol/kg
CN1CC[C@]23CC(=O)CC[C@@]2(O)[C@H]1Cc1cccc(O)c13 |  |  | 3.4 | 0.2 | 3.5 | 2 |  | 
COc1cccc2c1[C@]13CCN(C)[C@H](C2)[C@]1(OC)CCC(=O)C3 |  | 0.06 | 3.5 | 0.3 | 1.1 | 0.06 | 1.6 | Change (Oryctolagus cuniculus [15]): -64%; Change (Oryctolagus cuniculus [16]): -66 µM/kg; ED50 (Mus musculus [17]): 2.4 µmol/kg
COc1ccc2c(c1O)[C@]13CCN(C)[C@H](C2)[C@]1(OC)CCC(=O)C3 |  | 0.5 | 11 | 0.5 | 2.4 | 0.8 | 5.4 | 
CO[C@@]12CCC(=O)C[C@@]13CCN(C)[C@@H]2Cc1cccc(O)c13 |  | 0.4 | 0.7 | 0.02 | 1.2 | 0.5 | 1 | Change (Oryctolagus cuniculus [19]): -32%; Change (Oryctolagus cuniculus [20]): -40%; ED50 (Mus musculus [21]): 2.9 µmol/kg
COc1ccc2c(c1OC)[C@]13CCN(C)[C@H](C2)[C@]1(OC)CCC(=O)C3 |  | 0.05 | 0.85 | 0.085 | 0.3 | 0.06 | 0.6 | Change (Oryctolagus cuniculus [22]): -50%; Change (Oryctolagus cuniculus [23]): -48%; ED50 (Mus musculus [24]): 1.6 µmol/kg
COc1ccc2c(c1OC)[C@]13CCN(C)[C@H](C2)[C@]1(O)CCC(=O)C3 |  | 0.3 | 1.2 | 0.5 |  | 0.4 |  | 
CN1CC[C@]23CC(=O)CC[C@@]2(O)[C@H]1Cc1ccccc13 |  | 2 | 12 | 0.3 |  | 1.8 |  | 
CO[C@@]12CCC(=O)[C@@H]3Oc4cccc5c4[C@@]31CCN(C)[C@@H]2C5 | 0.3 | 0.3 | 16 | 0.2 |  |  |  | Change (Oryctolagus cuniculus [25]): -68%; ED50 (Mus musculus [26]): 14 µmol/kg; ED50 (Mus musculus [3]): 4.7 µmol/kg; ED50 (Mus musculus [7]): 2.8 µmol/kg; Change (Oryctolagus cuniculus [27]): -75%
CN1CC[C@]23c4c5cccc4O[C@H]2C(=O)CC[C@@]3(O)[C@H]1C5 | 1.6 |  | 16 | 1.4 |  |  |  | ED50 (Mus musculus [7]): 31 µmol/kg
COc1cccc2c1[C@]13CCN(C)[C@H](C2)[C@]1(O)CCC(=O)C3 |  |  | 3.7 | 0.75 | 5 | 0.5 |  | 
CO[C@@]12CCC(=O)C[C@@]13CCN(C)[C@@H]2Cc1ccccc13 |  | 0.2 | 6 | 0.2 | 2.2 | 0.1 | 2.3 | Change (Oryctolagus cuniculus [28]): -52%; Change (Oryctolagus cuniculus [29]): -48%; ED50 (Mus musculus [30]): 7 µmol/kg
CN1CC[C@]23c4c5ccc(O)c4O[C@H]2[C@@H](O)C=C[C@H]3[C@H]1C5.Cl [MORPHINE HYDROCHLORIDE] |  |  |  |  |  |  |  | Change (Oryctolagus cuniculus [31]): -43%; Change (Oryctolagus cuniculus [32]): 38.3%; ED50 (Mus musculus [33]): 59 µmol/kg
CN1CC[C@]23c4c5ccc(O)c4O[C@H]2C(=O)CC[C@@]3(O)[C@H]1C5 [OXYMORPHONE] | 0.3 |  |  |  |  |  |  | ED50 (Mus musculus [7]): 3 µmol/kg

— ChEMBL document CHEMBL1122531 (J Med Chem, 1984)
